Measurements as given in the supplement of paper PMC10307832.

Tests used:
Assay in all cases: relative viability (nuclei count vs DMSO), 5 days (fraction); higher = more cells survive
Motesanib + Foretinib = compound: CC1(C)CNc2cc(NC(=O)c3cccnc3NCc3ccncc3)ccc21 [Motesanib] + COc1cc2c(Oc3ccc(NC(=O)C4(C(=O)Nc5ccc(F)cc5)CC4)cc3F)ccnc2cc1OCCCN1CCOCC1 [Foretinib] (partner 0.25 µM)
Outline: (§1)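 Lung cancer cell lines were seeded in 1536-well plates and dosed by pin tool the next day, with either a single drug or a fixed anchor-drug dose combined with five library-drug doses (not always all listed) spaced in √10 steps. Five days later, one step fixed the cells and stained their nuclei (final 0.05% Triton X-100, 1% formaldehyde, 1 ug/ml Hoechst), and nuclei were counted on 4× images. Relative viability is the nuclei count in treated wells divided by the count in vehicle wells, and each value is the median of duplicate plates.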

Motesanib + Lapatinib = compound: CC1(C)CNc2cc(NC(=O)c3cccnc3NCc3ccncc3)ccc21 [Motesanib] + CS(=O)(=O)CCNCc1ccc(-c2ccc3ncnc(Nc4ccc(OCc5cccc(F)c5)c(Cl)c4)c3c2)o1 [Lapatinib] (partner 2 µM)
Outline: as §1

[1] = compound: C[C@@]1(C(=O)Nc2ccc(F)nc2)CCCN1c1nc(Nc2cc(C3CC3)n[nH]2)c2cccn2n1
Outline: (§2)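 Viability was read as treated-well nuclei divided by vehicle-well nuclei, using the median across plates. Lung cancer cell lines in 1536-well plates were kept overnight at 37 °C, pinned with five √10-spaced library-drug doses, and after 5 days were Hoechst-stained, imaged at 4× and counted in MetaXpress. Plates passed only with control CV below 25% and at least one doubling.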

Motesanib = compound: CC1(C)CNc2cc(NC(=O)c3cccnc3NCc3ccncc3)ccc21 [Motesanib]
Outline: as §2

**Q.** With UMC-11 as the cell line, how does the relative viability (Motesanib + Foretinib; first compound 0.01 µM) read?
**A.** 0.998

**Q.** And the relative viability (Motesanib + Foretinib; first compound 0.03162 µM)?
**A.** 1.08

**Q.** What about the relative viability (Motesanib + Foretinib; first compound 0.1 µM) of the same cell line?
**A.** 0.985

**Q.** And the relative viability (Motesanib + Foretinib; first compound 0.3162 µM)?
**A.** 1.08

**Q.** And the relative viability (Motesanib + Foretinib; first compound 1 µM)?
**A.** 1.2

**Q.** And the relative viability (Motesanib + Lapatinib; first compound 0.01 µM)?
**A.** 0.901

**Q.** And the relative viability (Motesanib + Lapatinib; first compound 0.03162 µM)?
**A.** 1.07

**Q.** And the relative viability (Motesanib + Lapatinib; first compound 0.1 µM)?
**A.** 0.724

**Q.** What about the relative viability (Motesanib + Lapatinib; first compound 0.3162 µM) of the same cell line?
**A.** 1

**Q.** And the relative viability (Motesanib + Lapatinib; first compound 1 µM)?
**A.** 1.08

**Q.** What about the relative viability ([1]; 0.04 µM) of the same cell line?
**A.** 0.981

**Q.** And the relative viability ([1]; 0.1265 µM)?
**A.** 1.03

**Q.** And the relative viability ([1]; 0.4 µM)?
**A.** 0.907

**Q.** And the relative viability ([1]; 1.265 µM)?
**A.** 0.797

**Q.** What about the relative viability (Motesanib; 0.01 µM) of the same cell line?
**A.** 0.951

**Q.** What about the relative viability (Motesanib; 0.03162 µM) of the same cell line?
**A.** 1.07

**Q.** And the relative viability (Motesanib; 0.1 µM)?
**A.** 0.872

**Q.** And the relative viability (Motesanib; 0.3162 µM)?
**A.** 1

**Q.** What about the relative viability (Motesanib; 1 µM) of the same cell line?
**A.** 1.13
